# Experimental data reported in patent US20260286306A1, “Culture Medium, Production Method, and Cell Preparation19155704” (National University Corporation Kumamoto University, priority 2023, published 2026).
# Experiments:
# [1] = system: EPCR High cell group (hematopoietic stem cells); test: ex vivo culture of mouse EPCR High cell group for 4 days, flow cytometry and cell count; format: cell-based; details: for number of cells compared with the control: 4 days culture, FIG. 7(B); for proportion of EPCR High in hematopoietic stem cells (EPCR High phenotype): flow cytometry
# Description: The expression of c-kit and EPCR in a hematopoietic stem cell fraction (lineage: CD150+, CD48−) isolated from a mouse by using flow cytometry was checked. Among the c-kit-positive and EPCR-positive cells, a cell group of the top 30% of the EPCR-positive cells was defined as an EPCR High cell group, and a cell group of the bottom 30% of the EPCR-positive cells was defined as an EPCR Low cell group (see FIG. 1). Each cell group was transplanted into a recipient mouse, and 20 weeks later, the proportion of cells derived from the transplanted stem cells was examined in the peripheral blood (PB). In addition, at the same time, the proportion of cells derived from the transplanted stem cells was examined in the hematopoietic stem cell fraction (L-ESLAM) in the bone marrow after 20 weeks of the transplantation. The experiment was carried out twice.
# As shown in FIG. 5(A), α-ketoglutaric acid (αKG), which is an intermediate metabolite of the TCA cycle, is also produced from glutamic acid or the like, and then it is supplied to the TCA cycle. In addition, in the production of a-ketoglutaric acid from glutamic acid, two pathways of a transaminase pathway and a glutamate dehydrogenase pathway are used (see FIG. 5(B)). Therefore, the proportion of EPCR High in hematopoietic stem cells was determined in a case where the EPCR High cell group was cultured for 4 days by adding each of an inhibitor R162 (30 μM) of glutamate dehydrogenase and an inhibitor aminooxyacetic acid (AOA) (50 μM) of transaminase to the culture medium, and in a case where the content of […], which is the source of glutamic acid synthesis, was set to 1/100 (0.02 mM) in FIG. 5(A) (Low Neu.).
# The above-described mouse EPCR High cell group was cultured for 4 days by adding EGCG (50 μM), which is another glutamate dehydrogenase inhibitor, to a culture medium.
# [2] = system: Human CD34+ bone marrow cells; test: culture of human CD34+ bone marrow cells for 7 days, total cell number and flow cytometry; format: cell-based; details: R162 30 μM
# Description: Human CD34^+ bone marrow cells (10,000 cells) were cultured for 7 days under normal culture conditions or in the presence of a glutamate dehydrogenase inhibitor R162 (30 μM), and then the total number of cells was analyzed. Then, the proportion of hematopoietic stem cells (lineage: CD34+CD38−CD90+cells) was analyzed using a flow cytometer, and from the results, the number of stem cells was estimated. FIG. 13 and FIG. 14 show the results. As shown in FIG. 14(A), it has been confirmed that the total number of cells is not changed by the presence of R162 as compared with the control, whereas as shown in FIG. 14(B), the ratio of stem cells after culturing is increased by the presence of R162.
# The culture medium used for the ex vivo culture of human CD34+ bone marrow cells is a culture medium obtained by adding, to the RPMI medium, L-Alanin (4.45 mg/L), Zinc Sulfate Heptahydrate (0.432 mg/L), Cupric Sulfate Pentahydrate (0.0013 mg/L), Ferric Nitrate Nonahydrate (0.05 mg/L), Ferrous Sulfate Heptahydrate (0.417 mg/L), Linoleic acid (0.042 mg/L), Hypoxanthine (2.1 mg/L), Putrescine+2HCL (0.081 mg/L), Thioctic Acid (0.105 mg/L), Thymidine (0.365 mg/L), Sodium Pyruvate (55 mg/L), HEPES (1 mM), a penicillin-streptomycin mixed solution (Nacalai Tesque, Inc.: 26253-84) (1/100 capacity), Insulin-Transferrin-Selenium-Ethanolamine (Thermo Fisher Scientific, Inc.: 51500056) (1/100 capacity), and AlbuMAXtm I Lipid-Rich BSA (Thermo Fisher Scientific, Inc.: 11020021) (2%).
# recipient mouse = test: transplantation of cultured cell groups into a recipient mouse, proportion of donor-derived cells; format: in vivo
# Description: Mouse EPCR High cells were cultured for 4 days under the normal culture conditions or in the presence of R162, and 50 cells of each of an EPCR High cell group (Control) generated under the normal culture conditions, an EPCR Low cell group (Control), and an EPCR High cell group (R162) amplified in the presence of R162 were aliquoted and then transplanted into a recipient mouse. Then, after 4 weeks and 12 weeks, the proportion of cells derived from donor cells in the peripheral blood was examined.
# Further, the EPCR High cells were cultured for 4 days under the normal culture conditions and cultured for 4 days in the presence of R162, and the EPCR High cell group generated under the normal culture conditions, the EPCR Low cell group, and the EPCR High cell group (R162) amplified in the presence of R162 were each transplanted into a recipient mouse. Then, 20 weeks later, the proportion of cells derived from donor cells was examined in the peripheral blood and the hematopoietic stem cell fraction in the bone marrow (L-ESLAM (BM)).
smiles,measurement,setting,value
"NOCC(=O)O [AOA, aminooxyacetic acid]",number of cells compared with the control,[1]; AOA 50 μM,significantly reduced
"O=C(O[C@@H]1Cc2c(O)cc(O)cc2O[C@@H]1c1cc(O)c(O)c(O)c1)c1cc(O)c(O)c(O)c1 [EGCG, epigallo catechin-3-gallate]",proportion of EPCR High in hematopoietic stem cells (EPCR High phenotype),"[1]; EGCG 50 μM in culture medium, 4 days, FIG. 15",phenotype of EPCR High is maintained
"C=CCc1ccc2c(c1O)C(=O)c1ccccc1C2=O [R162, 2-allyl-1-hydroxy-9,10-anthraquinone]",fold induction at 30 µM,"[1]; Mus musculus, Hematopoietic stem cell, 96 h, culture in the presence of R162 (30 μM), 4 days, read-out: increase in number of cells having the EPCR High phenotype compared with normal culture conditions",~2
same,proportion of EPCR High in hematopoietic stem cells (EPCR High phenotype),"[1]; R162 30 μM in culture medium, 4 days, FIG. 6/7(A)",phenotype of EPCR High is maintained
same,number of cells compared with the control,[1]; R162 30 μM,about the same level as that of the control
same,total number of cells compared with the control,"[2]; 7 days, 10,000 cells seeded, FIG. 14(A)",not changed
same,ratio of stem cells (CD34+CD38−CD90+ cells) after culturing,"[2]; 7 days, flow cytometer, FIG. 14(B)",increased
same,number of stem cells compared with normal culture conditions,"[2]; 7 days, estimated from total cell number and stem cell proportion",number of stem cells is increased
same,proportion of cells derived from donor cells in the peripheral blood (ability to reconstruct hematopoietic tissue),"recipient mouse; 50 EPCR High cells amplified 4 days in the presence of R162, transplanted, 4 weeks and 12 weeks, FIG. 8","high ability to reconstruct hematopoietic tissue, which is equivalent to the EPCR High cell group (Control)"
same,proportion of cells derived from donor cells in peripheral blood and bone marrow hematopoietic stem cell fraction (L-ESLAM (BM)),"recipient mouse; EPCR High cells amplified 4 days in the presence of R162, transplanted, 20 weeks, vs EPCR High and EPCR Low (Control), FIG. 12",high ability to maintain the reconstructed hematopoiesis for a longer period of time
